{
  "source": "patent US20200360331A1",
  "about": "“COMPOSITIONS COMPRISING 15-HEPE AND/OR 15-HETrE AND METHODS OF TREATING OR PREVENTING CARDIOMETABOLIC DISEASE, METABOLIC SYNDROME, AND/OR RELATED DISEASES” (Afimmune Limited, priority 2019, published 2020)",
  "key": {"[1]": {"tested_on": "TGF-β induced epithelial mesenchymal transition (EMT) protein production", "experiment": "TGF-β induced EMT protein production in HepG2 cells", "type": "cell-based, human", "conditions": "increasing doses for 1 hour, then 200 pM TGF-β for 48 hours, listed as 15-HEPE", "protocol": "The effects of 15-HEPE on TGF-β-induced signaling and cellular responses were determined. To test the effect of 15-HEPE on TGF-β-induced signaling, the activities of 15-HEPE to regulate TGF-β-stimulated Smad2 phosphorylation and nuclear translocation, both of which are key signaling events leading to TGF-β-induced cellular responses, were tested. One important biological activity of TGF-β is transcriptional activation of genes responsible for epithelial-mesenchymal transition (EMT), which is a crucial event in wound healing, tissue fibrosis, and cancer progression. The effect of 15-HEPE on TGFβ-induced epithelial mesenchymal transition related proteins (such as fibronectin, PAI-1, and N-cadherin etc.) expression in HepG2 and […] cells were assessed. HepG2 cells (human hepatoma cell line) were treated in increasing doses of 15-HEPE stage II in DMEM containing 0.1% of FBS for 1 hour and continually stimulated with or without 200 picomolar (pM) of TGF-β for 48 hours.\nHepG2 cells (human hepatoma cell line) were treated in increasing doses of 15-HEPE stage II in DMEM containing 0.1% of FBS for 1 hour and continually stimulated with or without 200 picomolar (pM) of TGF-β for 48 hours. The two panels shown in FIG. 18A are two separate experiments run under the same experimental conditions."}, "caveolin-1": {"tested_on": "caveolin-1", "experiment": "Sucrose density gradient analysis in Mv1Lu cells, caveolin-1", "type": "cell-based, mink", "conditions": "100 μM, 0, 1, 4 and 24 hours", "protocol": "Sucrose gradient ultracentrifugation and confocal microscopy were used to identify 15-HEPE induced microdomain translocation of TGF-β receptors by sucrose. Sucrose density gradient analysis of TGF-β receptors was conducted in the plasma membranes of Mv1Lu cells (mink lung epithelial cell) treated with 100 μM of 15-HEPE and an equal volume of DMSO (dimethyl sulfoxide) at 37° C. for 0, 1, 4, and 24 hours, and the cell lysates from these treated cells were subjected to sucrose density gradient ultracentrifugation. The sucrose gradient fractions were then analyzed by Western blot analysis using anti-TβR-I (type I TGF-β receptor), anti-TβR-II (type II TGF-β receptor), anti-TβR-III (type III TGF-β receptor, betaglycan), anti-EGFR (epidermal growth factor receptor), and anti-caveolin-1 antibodies. The lipid raft/caveolae, and non-lipid raft microdomain localization of TβR-I, TβR-II, TβR-III, EGFR and caveolin-1 in the plasma membrane of untreated cells or cells treated with 15-HEPE were assessed to determine the effects of 15-HEPE on the membrane microdomain localization of the TGF-β receptors. […]"}, "NAFLD patients": {"tested_on": "NAFLD patients", "experiment": "Phase IIa NAFLD study: lipid profile", "type": "in vivo, human", "conditions": "for Triglycerides (median placebo-corrected % change from baseline): 2 g", "excerpt": "Exploratory analysis: The exploratory analysis included analysis of lipid and metabolic parameters including total cholesterol, triglycerides, very low-density lipoprotein cholesterol (VLDL-C), low density lipoprotein cholesterol (LDL-C), high density lipoprotein cholesterol (HDL-C), non-high-density lipoprotein cholesterol (non-HDL-C), remnant-like particle cholesterol (RLP-C), fasting glucose, insulin, free fatty acids and hemoglobin A1C (HbA1C). Additional exploratory analysis included high throughput lipidomics and proteomics.\nThe study was planned to include 96 evaluable patients with 32 patients randomized per treatment group.\nClinical Laboratory Safety Tests: Safety tests were performed for hematology, serum biochemistry, coagulation, lipid profile, and urinalysis: Blood and urine samples were taken as per the Study Flow Chart in Table 19 for routine hematology, serum biochemistry, coagulation and urinalysis tests, along with a Lipid Profile. All samples were analyzed in the central laboratory. All subjects were fasted for a minimum of 8 hours prior to blood sampling. If subjects had not fasted for a minimum of 8 hours, the duration of fasting time was recorded, and subjects encouraged to fast appropriately for the next clinical visit. • Hematology: Full blood count to include red cell count, hemoglobin, hematocrit, white cell count, differential white cell count, platelet count and reticulocyte count. • Serum biochemistry: Urea (blood urea nitrogen; BUN), creatinine, uric acid, total bilirubin, Indirect and Direct Bilirubin, sodium, bicarbonate potassium, phosphorus, calcium chloride, alkaline phosphatase (ALP), aspartate aminotransferase (AST), alanine aminotransferase (ALT), ALT/AST ratio, lactate dehydrogenase (LDH), creatine phosphokinase (CPK), albumin, total protein, cholesterol, triglycerides, glucose, C-reactive protein (CRP). • Coagulation: prothrombin time (PT), international normalized ratio (INR) and activated partial […]. • Lipid Profile: LDL, HDL, and VLDL-C. • Urinalysis: pH, protein, glucose, blood, ketones, leukocytes, leukocyte esterase, bilirubin, specific gravity, urobilinogen and nitrate. Reflex micro if blood, protein, leukocyte esterase or nitrate/nitrite are present."}},
  "note": "Entries after “also recorded” stand apart in the source; their conditions may differ.",
  "data": [
    {"smiles": "CC/C=C\\CC(O)/C=C/C=C\\C/C=C\\C/C=C\\CCCC(=O)O", "note": "(stereo not shown) [DS102, 15-hydroxy-eicosa-5Z,8Z,11Z,13E,17Z-pentaenoic acid]", "values": [
      {"measurement": "TGF-β induced EMT (pro-fibrotic) protein production", "setting": "[1]", "result": "blocks TGF-β induced EMT protein production; also recorded: blocked TGF-β induced pro-fibrotic protein production"},
      {"measurement": "localization and abundance of caveolin-1", "setting": "caveolin-1", "result": "did not change the localization and abundance"},
      {"measurement": "Triglycerides (median placebo-corrected % change from baseline)", "setting": "NAFLD patients; Week 16, Full Analysis Set", "result": "−40.2", "unit": "%"},
      {"measurement": "Triglycerides (median placebo-corrected % change from baseline)", "setting": "NAFLD patients; Week 16, Subgroup: High Triglycerides (>200 mg/dL)", "result": "−20.4", "unit": "%"},
      {"measurement": "Triglycerides (median placebo-corrected % change from baseline)", "setting": "NAFLD patients; Week 16, Subgroup: Triglycerides > Upper Limit Normal (>150 mg/dL)", "result": "−39.0", "unit": "%"},
      {"measurement": "triglyceride levels", "setting": "NAFLD patients; NAFLD patients, Week 16", "result": "lowered"},
      {"measurement": "lipid profile (total cholesterol, VLDL-C, non-HDL-C, RLP cholesterol, triglyceride levels)", "setting": "NAFLD patients; Week 16, safety analysis set (SAS)", "result": "significantly improved"}
    ]}
  ]
}
